Organism: Rattus norvegicus
Test: Open TG-GATES - Regimen: Daily Repeat
Assay type: toxicity, organism-based, Sprague-Dawley
Design: regimen Daily Repeat, gender Male, age 6 weeks
Conditions: in vivo, po, 300 mg/kg, route gavage, dose level High; for APTT / Bas / Eos / Fbg / Hb / Ht / Lym / MCH / MCHC / MCV / Mono / Neu / PT / Plat / RBC / Ret / WBC: tissue Blood; for KIDNEY_L / KIDNEY_R / KIDNEY_TOTAL: tissue Kidney; for LIVER: tissue Liver; for A/G / ALP / ALT / AST / BUN / CRE / Ca / Cl / DBIL / GLC / IP / K / LDH / Na / PL / RALB / TBIL / TC / TG / TP / gamma-GTP: tissue Plasma

Structure (SMILES): ClC(Cl)(Cl)Cl [CARBON TETRACHLORIDE]
- TERMINAL_BW (72 h, time 3 day): 213 g
- APTT (72 h, time 3 day): 21.4 s
- Bas (72 h, time 3 day): 0%
- Eos (72 h, time 3 day): 1%
- Fbg (72 h, time 3 day): 217 mg/dL
- Hb (72 h, time 3 day): 14.1 g/dL
- Ht (72 h, time 3 day): 41.3%
- Lym (72 h, time 3 day): 73%
- MCH (72 h, time 3 day): 21.6 pg
- MCHC (72 h, time 3 day): 34.1%
- MCV (72 h, time 3 day): 63.2 fL
- Mono (72 h, time 3 day): 4%
- Neu (72 h, time 3 day): 20.4%
- PT (72 h, time 3 day): 13.5 s
- Plat (72 h, time 3 day): 114.2 x10_4/uL
- RBC (72 h, time 3 day): 655 x10_4/ul
- Ret (72 h, time 3 day): 5.5%
- WBC (72 h, time 3 day): 96.3 x10_2/uL
- KIDNEY_L (72 h, time 3 day): 1 g
- KIDNEY_R (72 h, time 3 day): 1 g
- KIDNEY_TOTAL (72 h, time 3 day): 1.9 g
- LIVER (72 h, time 3 day): 11.1 g
- A/G (72 h, time 3 day): 1.5
- ALP (72 h, time 3 day): 1664.6 IU/L
- ALT (72 h, time 3 day): 124.8 IU/L
- AST (72 h, time 3 day): 283.8 IU/L
- BUN (72 h, time 3 day): 14.6 mg/dL
- CRE (72 h, time 3 day): 0.4 mg/dL
- Ca (72 h, time 3 day): 10.7 mg/dL
- Cl (72 h, time 3 day): 103.8 meq/L
- DBIL (72 h, time 3 day): 0.068 mg/dL
- GLC (72 h, time 3 day): 178.4 mg/dL
- IP (72 h, time 3 day): 7.3 mg/dL
- K (72 h, time 3 day): 3.8 meq/L
- LDH (72 h, time 3 day): 355.2 IU/L
- Na (72 h, time 3 day): 140.4 meq/L
- PL (72 h, time 3 day): 116.4 mg/dL
- RALB (72 h, time 3 day): 3.1 g/dL
- TBIL (72 h, time 3 day): 0.1 mg/dL
- TC (72 h, time 3 day): 49.8 mg/dL
- TG (72 h, time 3 day): 28.6 mg/dL
- TP (72 h, time 3 day): 5.3 g/dL
- gamma-GTP (72 h, time 3 day): 1.2 IU/L
- TERMINAL_BW ([…], time 7 day): 248.2 g
- TERMINAL_BW ([…], time 14 day): 287.9 g
- TERMINAL_BW ([…], time 28 day): 367.6 g
- APTT ([…], time 7 day): 20.7 s
- Bas ([…], time 7 day): 0%
- Eos ([…], time 7 day): 1%
- Fbg ([…], time 7 day): 230.4 mg/dL
- Hb ([…], time 7 day): 13.5 g/dL
- Ht ([…], time 7 day): 39.2%
- Lym ([…], time 7 day): 78.8%
- MCH ([…], time 7 day): 21.4 pg
- MCHC ([…], time 7 day): 34.4%
- MCV ([…], time 7 day): 62.3 fL
- Mono ([…], time 7 day): 3.6%
- Neu ([…], time 7 day): 16.2%
- PT ([…], time 7 day): 12.4 s
- Plat ([…], time 7 day): 106.7 x10_4/uL
- RBC ([…], time 7 day): 629.6 x10_4/ul
- Ret ([…], time 7 day): 6%
- WBC ([…], time 7 day): 130.8 x10_2/uL
- APTT ([…], time 14 day): 23 s
- Bas ([…], time 14 day): 0%
- Eos ([…], time 14 day): 1%
- Fbg ([…], time 14 day): 211.6 mg/dL
- Hb ([…], time 14 day): 14.2 g/dL
- Ht ([…], time 14 day): 42.3%
- Lym ([…], time 14 day): 81.4%
- MCH ([…], time 14 day): 19.1 pg
- MCHC ([…], time 14 day): 33.7%
- MCV ([…], time 14 day): 56.9 fL
- Mono ([…], time 14 day): 3%
- Neu ([…], time 14 day): 14.2%
- PT ([…], time 14 day): 12.6 s
- Plat ([…], time 14 day): 101.2 x10_4/uL
- RBC ([…], time 14 day): 744.4 x10_4/ul
- Ret ([…], time 14 day): 3.5%
- WBC ([…], time 14 day): 113.3 x10_2/uL
- APTT ([…], time 28 day): 25.3 s
- Bas ([…], time 28 day): 0%
- Eos ([…], time 28 day): 1%
- Fbg ([…], time 28 day): 198.8 mg/dL
- Hb ([…], time 28 day): 14.5 g/dL
- Ht ([…], time 28 day): 43.1%
- Lym ([…], time 28 day): 82.4%
- MCH ([…], time 28 day): 17.9 pg
- MCHC ([…], time 28 day): 33.6%
- MCV ([…], time 28 day): 53.1 fL
- Mono ([…], time 28 day): 3.4%
- Neu ([…], time 28 day): 13.2%
- PT ([…], time 28 day): 13.7 s
- Plat ([…], time 28 day): 99.7 x10_4/uL
- RBC ([…], time 28 day): 811.4 x10_4/ul
- Ret ([…], time 28 day): 2.3%
- WBC ([…], time 28 day): 151.6 x10_2/uL
- KIDNEY_L ([…], time 7 day): 1.1 g
- KIDNEY_R ([…], time 7 day): 1.1 g
- KIDNEY_TOTAL ([…], time 7 day): 2.2 g
- KIDNEY_L ([…], time 14 day): 1.1 g
- KIDNEY_R ([…], time 14 day): 1.1 g
- KIDNEY_TOTAL ([…], time 14 day): 2.2 g
- KIDNEY_L ([…], time 28 day): 1.2 g
- KIDNEY_R ([…], time 28 day): 1.2 g
- KIDNEY_TOTAL ([…], time 28 day): 2.5 g
- LIVER ([…], time 7 day): 13.7 g
- LIVER ([…], time 14 day): 15.9 g
- LIVER ([…], time 28 day): 20.8 g
- A/G ([…], time 7 day): 1.6
- ALP ([…], time 7 day): 1583 IU/L
- ALT ([…], time 7 day): 72.2 IU/L
- AST ([…], time 7 day): 139.2 IU/L
- BUN ([…], time 7 day): 16 mg/dL
- CRE ([…], time 7 day): 0.4 mg/dL
- Ca ([…], time 7 day): 10.6 mg/dL
- Cl ([…], time 7 day): 104.4 meq/L
- DBIL ([…], time 7 day): 0.074 mg/dL
- GLC ([…], time 7 day): 186.2 mg/dL
- IP ([…], time 7 day): 8.5 mg/dL
- K ([…], time 7 day): 4.1 meq/L
- LDH ([…], time 7 day): 305.4 IU/L
- Na ([…], time 7 day): 140.6 meq/L
- PL ([…], time 7 day): 129.2 mg/dL
- RALB ([…], time 7 day): 3.3 g/dL
- TBIL ([…], time 7 day): 0.1 mg/dL
- TC ([…], time 7 day): 56 mg/dL
- TG ([…], time 7 day): 44.4 mg/dL
- TP ([…], time 7 day): 5.4 g/dL
- gamma-GTP ([…], time 7 day): 1.4 IU/L
- A/G ([…], time 14 day): 1.6
- ALP ([…], time 14 day): 1597.4 IU/L
- ALT ([…], time 14 day): 149.4 IU/L
- AST ([…], time 14 day): 238.6 IU/L
- BUN ([…], time 14 day): 16.4 mg/dL
- CRE ([…], time 14 day): 0.5 mg/dL
- Ca ([…], time 14 day): 10.4 mg/dL
- Cl ([…], time 14 day): 103.8 meq/L
- DBIL ([…], time 14 day): 0.064 mg/dL
- GLC ([…], time 14 day): 187.6 mg/dL
- IP ([…], time 14 day): 7.5 mg/dL
- K ([…], time 14 day): 3.9 meq/L
- LDH ([…], time 14 day): 389.6 IU/L
- Na ([…], time 14 day): 140.8 meq/L
- PL ([…], time 14 day): 113 mg/dL
- RALB ([…], time 14 day): 3.4 g/dL
- TBIL ([…], time 14 day): 0.1 mg/dL
- TC ([…], time 14 day): 51.6 mg/dL
- TG ([…], time 14 day): 21 mg/dL
- TP ([…], time 14 day): 5.7 g/dL
- gamma-GTP ([…], time 14 day): 1.4 IU/L
- A/G ([…], time 28 day): 1.3
- ALP ([…], time 28 day): 1255 IU/L
- ALT ([…], time 28 day): 300.8 IU/L
- AST ([…], time 28 day): 396.2 IU/L
- BUN ([…], time 28 day): 17.8 mg/dL
- CRE ([…], time 28 day): 0.5 mg/dL
- Ca ([…], time 28 day): 10.6 mg/dL
- Cl ([…], time 28 day): 103.4 meq/L
- DBIL ([…], time 28 day): 0.092 mg/dL
- GLC ([…], time 28 day): 174.2 mg/dL
- IP ([…], time 28 day): 6.4 mg/dL
- K ([…], time 28 day): 3.9 meq/L
- LDH ([…], time 28 day): 534.6 IU/L
- Na ([…], time 28 day): 141.6 meq/L
- PL ([…], time 28 day): 103.6 mg/dL
- RALB ([…], time 28 day): 3.4 g/dL
- TBIL ([…], time 28 day): 0.2 mg/dL
- TC ([…], time 28 day): 39.4 mg/dL
- TG ([…], time 28 day): 20.8 mg/dL
- TP ([…], time 28 day): 5.9 g/dL
- gamma-GTP ([…], time 28 day): 1.2 IU/L
